In publication PMC6891286, “Towards the Development of an In vivo Chemical Probe for Cyclin G Associated Kinase (GAK)” (Molecules, 2019):
Like-named read-outs stand apart in the source and are kept apart here.

What was measured:
[1] = biological target: AAK1 (Homo sapiens, UniProt Q2M2I8); test: NAK family TR-FRET binding displacement assay; conditions: NAK family FRET screening
[2] = biological target: BMP2K (Homo sapiens, UniProt Q9NSY1); test: NAK family TR-FRET binding displacement assay
[3] = mouse liver microsome metabolic stability; conditions: mouse liver microsomes; for T1/2 Ratio: normalization with respect to internal control (propranolol); for half-life: mouse, T1/2 (min), mouse liver microsomes with NADPH, mean average, n = 2
Protocol: SGC-GAK-1 (1) was incubated with MLMs in the presence or absence of added NADPH, and the compound was quantified at various time points over an hour.
The metabolic stability of the 4-anilinoquinolines (8–13) were evaluated in MLMs (Table 1). Half-lives for metabolic clearance were normalized to propranolol in each experimental run to control for variations in the MLM preparations.

[4] = biological target: T1, GAK (Homo sapiens, UniProt O14976); test: TR-FRET ligand-binding displacement assay
T1 sequence (O14976 1-1311): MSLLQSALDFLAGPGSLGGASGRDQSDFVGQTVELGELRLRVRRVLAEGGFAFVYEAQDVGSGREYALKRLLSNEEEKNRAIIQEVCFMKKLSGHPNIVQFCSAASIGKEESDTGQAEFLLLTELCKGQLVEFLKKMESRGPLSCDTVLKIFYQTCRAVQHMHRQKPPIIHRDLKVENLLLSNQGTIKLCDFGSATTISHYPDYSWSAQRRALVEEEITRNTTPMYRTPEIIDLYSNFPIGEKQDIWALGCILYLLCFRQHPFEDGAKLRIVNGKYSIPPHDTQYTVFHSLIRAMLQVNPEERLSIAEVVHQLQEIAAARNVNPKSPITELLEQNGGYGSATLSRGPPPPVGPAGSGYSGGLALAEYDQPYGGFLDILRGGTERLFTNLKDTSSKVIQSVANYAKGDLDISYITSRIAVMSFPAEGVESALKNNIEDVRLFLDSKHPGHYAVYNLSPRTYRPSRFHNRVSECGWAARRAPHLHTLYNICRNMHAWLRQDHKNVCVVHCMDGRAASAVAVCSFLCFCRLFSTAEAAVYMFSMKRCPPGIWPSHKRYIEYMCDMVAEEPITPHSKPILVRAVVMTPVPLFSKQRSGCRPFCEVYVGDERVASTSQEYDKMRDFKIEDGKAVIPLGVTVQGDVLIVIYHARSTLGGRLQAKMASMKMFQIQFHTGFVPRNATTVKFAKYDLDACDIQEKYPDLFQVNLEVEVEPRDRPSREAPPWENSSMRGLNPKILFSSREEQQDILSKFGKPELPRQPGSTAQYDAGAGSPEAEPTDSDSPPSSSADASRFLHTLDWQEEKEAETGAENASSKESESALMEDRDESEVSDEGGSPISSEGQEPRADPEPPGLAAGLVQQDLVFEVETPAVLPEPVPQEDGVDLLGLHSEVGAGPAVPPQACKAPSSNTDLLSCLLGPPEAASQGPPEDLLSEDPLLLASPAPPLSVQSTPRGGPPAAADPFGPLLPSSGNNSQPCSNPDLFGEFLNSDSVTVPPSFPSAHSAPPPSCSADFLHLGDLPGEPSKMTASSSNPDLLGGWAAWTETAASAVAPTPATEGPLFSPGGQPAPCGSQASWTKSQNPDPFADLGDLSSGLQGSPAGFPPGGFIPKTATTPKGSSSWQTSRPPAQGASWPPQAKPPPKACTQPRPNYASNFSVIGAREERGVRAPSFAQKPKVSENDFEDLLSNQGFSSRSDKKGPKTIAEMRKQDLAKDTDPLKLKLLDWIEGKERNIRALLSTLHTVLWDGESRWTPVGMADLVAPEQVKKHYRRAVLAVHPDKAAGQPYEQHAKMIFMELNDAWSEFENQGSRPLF

[5] = biological target: STK16 (Homo sapiens, UniProt O75716); test: NAK family TR-FRET binding displacement assay; conditions: NAK family FRET screening; read-out: Binding displacement assay STK16 Ki
STK16, sequence (O75716 whole entry): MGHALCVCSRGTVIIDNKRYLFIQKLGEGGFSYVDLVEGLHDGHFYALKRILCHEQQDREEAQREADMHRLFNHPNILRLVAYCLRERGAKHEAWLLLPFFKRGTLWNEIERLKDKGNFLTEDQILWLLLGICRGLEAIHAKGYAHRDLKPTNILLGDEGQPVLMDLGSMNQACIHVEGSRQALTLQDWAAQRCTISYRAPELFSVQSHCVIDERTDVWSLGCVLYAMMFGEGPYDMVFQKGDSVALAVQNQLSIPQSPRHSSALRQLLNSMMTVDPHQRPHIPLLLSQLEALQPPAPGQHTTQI

[6] = biological target: T1, GAK; test: live cell NanoBRET target engagement assay; assay type: cell-based; conditions: for IC50: nanoBRET, mean average, n = 2; for IC50 values in cells: live cell NanoBRET assay
[7] = Kinetic Solubility; assay type: physicochemical; conditions: pH 7.4, aqueous buffer, kinetic from dmso stock, PBS pH7.4 (100 µM)
[8] = TR-FRET assay, read-out: Biochemical GAK Ki
[9] = NAK family FRET screening, read-out: Binding displacement assay GAK Ki

AAK1, sequence (Q2M2I8 whole entry): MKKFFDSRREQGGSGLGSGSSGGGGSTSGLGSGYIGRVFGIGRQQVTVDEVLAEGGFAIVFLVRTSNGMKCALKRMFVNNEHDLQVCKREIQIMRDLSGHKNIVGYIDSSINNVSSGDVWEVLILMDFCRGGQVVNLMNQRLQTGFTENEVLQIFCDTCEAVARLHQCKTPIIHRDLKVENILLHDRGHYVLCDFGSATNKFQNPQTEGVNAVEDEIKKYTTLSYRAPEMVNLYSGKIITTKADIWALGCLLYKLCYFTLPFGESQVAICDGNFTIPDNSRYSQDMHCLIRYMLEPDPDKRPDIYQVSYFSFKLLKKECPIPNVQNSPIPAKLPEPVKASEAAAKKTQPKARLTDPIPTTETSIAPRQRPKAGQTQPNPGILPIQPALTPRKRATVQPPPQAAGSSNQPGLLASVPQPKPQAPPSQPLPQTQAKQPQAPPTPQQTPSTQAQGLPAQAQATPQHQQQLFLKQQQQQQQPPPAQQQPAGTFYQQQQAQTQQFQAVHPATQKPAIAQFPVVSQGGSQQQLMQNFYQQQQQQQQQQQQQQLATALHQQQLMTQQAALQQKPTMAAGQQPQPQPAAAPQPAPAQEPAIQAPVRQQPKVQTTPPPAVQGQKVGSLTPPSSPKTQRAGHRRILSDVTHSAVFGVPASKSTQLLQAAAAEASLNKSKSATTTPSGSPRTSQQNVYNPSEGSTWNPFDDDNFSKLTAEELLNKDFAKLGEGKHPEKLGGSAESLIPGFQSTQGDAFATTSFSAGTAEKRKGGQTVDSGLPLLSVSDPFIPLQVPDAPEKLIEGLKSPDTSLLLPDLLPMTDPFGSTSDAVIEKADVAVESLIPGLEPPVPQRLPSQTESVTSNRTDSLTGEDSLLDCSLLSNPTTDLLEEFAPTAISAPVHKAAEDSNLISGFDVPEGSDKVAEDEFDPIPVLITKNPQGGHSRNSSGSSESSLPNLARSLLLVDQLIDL
BMP2K, sequence (Q9NSY1 whole entry): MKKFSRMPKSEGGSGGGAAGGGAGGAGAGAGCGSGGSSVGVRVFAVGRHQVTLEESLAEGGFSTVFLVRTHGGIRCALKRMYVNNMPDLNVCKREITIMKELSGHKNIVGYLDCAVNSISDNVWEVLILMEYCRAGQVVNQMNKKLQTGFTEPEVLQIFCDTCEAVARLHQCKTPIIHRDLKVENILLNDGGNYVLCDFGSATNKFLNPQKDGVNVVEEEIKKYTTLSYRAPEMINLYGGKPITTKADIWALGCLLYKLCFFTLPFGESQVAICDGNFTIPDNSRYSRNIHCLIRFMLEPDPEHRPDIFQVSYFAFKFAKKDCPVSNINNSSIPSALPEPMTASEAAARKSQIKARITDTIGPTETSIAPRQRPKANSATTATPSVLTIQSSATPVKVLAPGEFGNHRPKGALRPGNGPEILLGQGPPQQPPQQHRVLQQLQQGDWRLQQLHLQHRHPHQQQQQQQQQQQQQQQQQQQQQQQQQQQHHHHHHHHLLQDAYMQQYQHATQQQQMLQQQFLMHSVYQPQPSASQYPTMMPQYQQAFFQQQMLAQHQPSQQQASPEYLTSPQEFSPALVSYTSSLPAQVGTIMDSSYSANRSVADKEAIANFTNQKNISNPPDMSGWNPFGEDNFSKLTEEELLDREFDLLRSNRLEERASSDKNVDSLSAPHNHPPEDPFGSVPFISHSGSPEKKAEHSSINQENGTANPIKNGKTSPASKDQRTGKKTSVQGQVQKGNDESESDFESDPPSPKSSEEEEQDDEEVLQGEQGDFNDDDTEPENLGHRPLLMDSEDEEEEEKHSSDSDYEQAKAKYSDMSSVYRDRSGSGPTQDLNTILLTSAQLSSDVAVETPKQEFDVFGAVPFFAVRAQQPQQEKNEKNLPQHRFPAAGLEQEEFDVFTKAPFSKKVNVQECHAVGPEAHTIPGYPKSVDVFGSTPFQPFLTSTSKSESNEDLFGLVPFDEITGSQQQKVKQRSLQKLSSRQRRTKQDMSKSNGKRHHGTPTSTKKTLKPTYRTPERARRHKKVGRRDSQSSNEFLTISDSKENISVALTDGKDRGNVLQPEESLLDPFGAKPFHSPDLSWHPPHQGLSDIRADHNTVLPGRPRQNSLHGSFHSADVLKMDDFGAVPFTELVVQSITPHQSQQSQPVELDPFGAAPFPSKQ

Row | Compound | Ki [1] [µM] | Ki [2] [µM] | T1/2 Ratio [3] | half-life [3] [min] | Ki [4, 8] [µM] | Ki [5] [µM] | IC50 [6] [µM] | IC50 values in cells [6] | Ki [4, 9] [µM] | solubility kinetic ([7]; read-out: Kinetic Solubility µM) [µM] | solubility kinetic ([7]; read-out: Kinetic Solubility µg/mL) [µg/mL] | T1/2 ratios fold higher than 9 [3] [fold]
1 | Fc1c(F)c(F)c(Nc2ccnc3ccc(C(F)(F)F)cc23)c(F)c1F [Compound 12] | > 100 | > 100 | 7.0 | 45.6 | 0.88 | 19 | – | – | – | – | – | –
2 | COc1cccc(Nc2ccnc3ccc(Br)cc23)c1OC [Compound 15, 6-Bromo-N-(2,3-dimethoxyphenyl)quinolin-4-amine] | 3.3 | 8.7 | 0.12 | 1 | 0.74 | > 100 | > 5 | – | – | – | – | –
3 | FC1(F)Oc2cccc(Nc3ccnc4ccc(Br)cc34)c2O1 [Compound 16, 6-Bromo-N-(2,2-difluorobenzo[d][1,3]dioxol-4-yl)quinolin-4-amine] | > 100 | > 100 | 0.24 | 2 | 0.46 | > 100 | > 5 | – | – | – | – | –
4 | Brc1ccc2nccc(Nc3cccc4c3CCO4)c2c1 [Compound 17, 6-Bromo-N-(2,3-dihydrobenzofuran-4-yl)quinolin-4-amine] | > 100 | > 100 | 0.16 | 1.7 | 0.0052 | > 100 | > 5 | – | – | – | – | –
5 | Brc1ccc2nccc(Nc3cccc4c3OCC4)c2c1 [Compound 18, 6-Bromo-N-(2,3-dihydrobenzofuran-7-yl)quinolin-4-amine] | 3.5 | 11 | 0.10 | 0.82 | 0.029 | > 100 | 2.5 | – | – | – | – | –
6 | Brc1ccc2nccc(Nc3cccc4occc34)c2c1 [Compound 19, N-(Benzofuran-4-yl)-6-bromoquinolin-4-amine] | 1.9 | 11 | 0.16 | 1.7 | 0.0019 | > 100 | 0.18 | submicromolar | – | – | – | –
7 | Brc1ccc2nccc(Nc3cccc4ccoc34)c2c1 [Compound 20, N-(Benzofuran-7-yl)-6-bromoquinolin-4-amine] | 4.6 | 16 | 0.08 | 0.9 | 0.0043 | > 100 | 0.57 | submicromolar | – | – | – | –
8 | Brc1ccc2nccc(Nc3cccc4sccc34)c2c1 [Compound 26, N-(Benzo[b]thiophen-4-yl)-6-bromoquinolin-4-amine] | > 100 | > 100 | 0.50 | 4.1 | 0.023 | > 100 | 3.3 | – | – | – | – | –
9 | Brc1ccc2nccc(Nc3cccc4nc[nH]c34)c2c1 [Compound 27, N-(1H-Benzo[d]imidazol-7-yl)-6-bromoquinolin-4-amine] | 1.3 | 2.3 | 1.0 | 8.1 | – | 26 | > 5 | – | 0.066 | – | – | –
10 | Brc1ccc2nccc(Nc3cccc4nonc34)c2c1 [Compound 28, N-(6-Bromoquinolin-4-yl)benzo[c][1,2,5]oxadiazol-4-amine] | 4.6 | 13 | 0.15 | 1.2 | 0.041 | 11 | 2.5 | – | – | – | – | –
11 | Cn1nnc2c(Nc3ccnc4ccc(Br)cc34)cccc21 [Compound 30, 6-Bromo-N-(1-methyl-1H-benzo[d][1,2,3]triazol-4-yl)quinolin-4-amine] | 8.7 | 20 | 0.09 | 0.73 | – | > 100 | > 5 | – | 2.8 | – | – | –
12 | Cn1ncc2c(Nc3ccnc4ccc(Br)cc34)cccc21 [Compound 31, 6-Bromo-N-(1-methyl-1H-indazol-4-yl)quinolin-4-amine] | 13 | 16 | 0.10 | 0.8 | – | 28 | > 5 | – | 3.6 | – | – | –
13 | Fc1cc2cn[nH]c2cc1Nc1ccnc2ccc(Br)cc12 [Compound 36, 6-Bromo-N-(5-fluoro-1H-indazol-6-yl)quinolin-4-amine] | – | – | 2.2 | 14.8 | – | – | > 5 | – | – | 2 | 0.7 | –
14 | O=C1NCc2ccc(Nc3ccnc4ccc(Br)cc34)cc21 [Compound 38, 6-[(6-Bromoquinolin-4-yl)amino]-2,3-dihydro-1H-isoindol-1-one] | 1.4 | 0.98 | 1.0 | 8.1 | 0.062 | 2.7 | > 5 | – | – | – | – | –
15 | O=c1[nH]c2ccc(Nc3ccnc4ccc(Br)cc34)cc2[nH]1 [Compound 39, 5-[(6-Bromoquinolin-4-yl)amino]-2,3-dihydro-1H-1,3-benzodiazol-2-one] | 1.9 | 22 | >25 | > 200 | 0.36 | 21 | > 5 | – | – | – | – | ≥ 2
16 | O=c1[nH]c2ccc(Nc3ccnc4ccc(Br)cc34)cc2o1 [Compound 40, 6-[(6-Bromoquinolin-4-yl)amino]-2,3-dihydro-1,3-benzoxazol-2-one] | 2.4 | 4.9 | 6.9 | 55.9 | 0.68 | 8.8 | > 5 | – | – | – | – | ≥ 2
17 | O=c1[nH]c2cc(Nc3ccnc4ccc(Br)cc34)ccc2o1 [Compound 41, 5-[(6-Bromoquinolin-4-yl)amino]-2,3-dihydro-1,3-benzoxazol-2-one] | 37 | 79 | 3.4 | 27.8 | 0.11 | > 100 | > 5 | – | – | – | – | ≥ 2
18 | Cn1c(=O)[nH]c2cc(Nc3ccnc4ccc(Br)cc34)ccc21 [Compound 42, 5-[(6-Bromoquinolin-4-yl)amino]-1-methyl-2,3-dihydro-1H-1,3-benzodiazol-2-one] | 4.1 | 6.6 | 4.2 | 33.6 | 1.6 | 9.3 | > 5 | – | – | – | – | ≥ 2
19 | O=S1(=O)Cc2ccc(Nc3ccnc4ccc(Br)cc34)cc2C1 [Compound 43, 5-((6-Bromoquinolin-4-yl)amino)-1,3-dihydrobenzo[c]thiophene 2,2-dioxide] | 3.3 | 6.4 | 1.9 | 15.6 | 1.7 | 8 | > 5 | – | – | – | – | –
